Here are results for four compounds from US11505533B2, “Metabolically stable N-acylaminooxadiazoles useful as antibacterial agents” (MICROBIOTIX, INC., priority 2017, dated 2022).

≈ marks a conversion by molar mass, not a printed value. Entries after “also recorded” stand apart in the source; their conditions may differ. Where two headings read alike, the source gives them in different places.

As a reminder, the IC50 is the concentration needed to halve the response being measured. What is called MIC90 is an inhibitory concentration at the 90% level, which refers to growth in some studies and to a panel of isolates in others. Broadly, the Papp is the rate of passage across a membrane or cell layer, normalised by area and donor concentration. Read a low Papp as slow passage. The CC50 is the concentration that lowers cell viability or growth by half. As a reminder, the solubility is the dissolved amount per volume that the medium holds. A low value points to little dissolved substance. What is called fraction unbound is free concentration divided by total concentration. A low value points to little free substance.

The test system of one data set is trans-translation. To be noted: dose response assay; Ramadoss et al., PNAS 2013; cited from earlier work.
The next data set deals with mammalian systems. To be noted: even in the context of prolonged exposure; cited from earlier work.
A further data set deals with translation. To be noted: specific inhibitor of trans-translation; cited from earlier work.
Data set [1] in a line: Preliminary PK studies in mice. To be noted: IV or IP dosing at 10 mg/kg, data not shown.
The nature of data set [2]: Stability in liver microsomes in vitro. To be noted: mouse or human liver microsomes in vitro; data not shown. (Liver microsomes are a subcellular fraction often used to study metabolism.)
Data set [3] relates to S. aureus (MRSA-1234547263, Cip-res). The data set is classed as cell-based. To be noted: Staphylococcus aureus.
For the next data set, the system named is MRSA-1094 (MDR). The data set is classed as cell-based. To be noted: Staphylococcus aureus.
For data set [4], the system named is S. aureus (ATCC 35556, spec, kan-res). The data set is classed as cell-based. To be noted: Staphylococcus aureus, ATCC35556.
For data set [5], the system named is S. aureus NRS-77 (spec-res). The data set is classed as cell-based. To be noted: Staphylococcus aureus, NRS77; S. aureus NRS-77 (spec-res); read-out: MIC.
Data set [6] has as its system S. aureus WTBF-19 (MSSA. osteomyelitis isolate). Format: cell-based. To be noted: Staphylococcus aureus.
Data set [7] concerns S. aureus ATCC 25923 (MSSA. osteomyelitis isolate). Format: cell-based. To be noted: Staphylococcus aureus.
A further data set relates to MRSA USA 300 (BAA-1717). The data set is classed as cell-based. To be noted: Staphylococcus aureus; MRSA USA 300 (BAA-1717); read-out: MIC.
The next data set concerns MRSA N315 NRS-70. Format: cell-based. To be noted: Staphylococcus aureus; MRSA N315 NRS-70; read-out: MIC.
For a further data set, the system named is S. pneumoniae 49619. The data set is classed as cell-based. To be noted: Streptococcus pneumoniae; S. pneumoniae 49619; read-out: MIC.
The test system of the next data set is M. pneumoniae 15531. Format: cell-based. To be noted: Mycoplasmoides pneumoniae; M. pneumoniae 15531; read-out: MIC.
Data set [8] relates to E. coli (700, TolC+) efflux pos. Format: cell-based. To be noted: Escherichia coli; E. coli (700, TolC+) efflux pos; read-out: MIC.
In another data set the test system is N. gonorrhoeae 49226. Format: cell-based. To be noted: Neisseria gonorrhoeae; N. gonorrhoeae 49226; read-out: MIC.
In data set [9] the test system is Franciscella tularensis (Schu13). Briefly: organism not typed. The data set is classed as cell-based.
The subject of data set [10] is Moraxella catarrhalis 8176. The data set is classed as cell-based. To be noted: read-out: MIC.
Data set [11] concerns Legionella pneumophila 33153. Kind of data set: microbe, parasite or virus in culture. Format: cell-based.
Data set [12] has as its system Haemophilus influenza 35056. The data set is classed as cell-based. To be noted: Haemophilus influenza 35056; read-out: MIC.
Another data set has as its system Franciscella tularensis. Kind of data set: organism not typed. The data set is classed as cell-based.
Another data set concerns E. coli TolC(−). Kind of data set: TolC(−) MIC (NB). The data set is classed as cell-based. To be noted: Escherichia coli, read-out: TolC(−) MIC (μM)(NB).
A further data set in a line: Caco-2 permeability. The data set is classed as in vitro ADME. To be noted: human, direction not given. An excerpt: Res., 15(5): 726-733 (1998).
A further data set is described as follows: Mouse serum stability. To be noted: 5 μM, 37° C., 4 h.
Data set [13] is described as follows: Mammalian cell cytotoxicity.
Data set [14] is described as follows: Microsomal stability + NADPH. To be noted: mouse liver microsomes, 0.5 hr at 37° C.
Data set [15] can be described thus: Aqueous solubility, nephelometry. To be noted: water, kinetic from dmso stock.
The nature of data set [16]: Mouse serum binding, equilibrium dialysis. In general terms: Equilibrium dialysis compares concentrations on both sides of a semipermeable membrane.
[17] abbreviates: S. aureus ATCC 25923 (MSSA), read-out: MIC.

As to `O=C(Nc1nnc(-c2ccc(F)cc2)o1)c1ccc(Cl)cc1` [KKL-35], the IC50 with trans-translation is 0.9 µM. The cytotoxicity entry in the data set with mammalian systems is listed as “lack of cytotoxicity”. Besides, the effect on translation result in the data set with translation was “no effect on translation”. The bioavailability in mice result in data set [1] is given as “extremely poor bioavailability; also recorded: undetectable in mouse serum at 6 h”. Besides, the “stability in the presence of liver microsomes” value in [2] is “poor microsomal stability; also recorded: no detectable material after 5 min”.
Consider `O=C(Nc1nnc(-c2ccc(F)cc2)o1)c1ccc(Oc2ccccc2)nc1` [compound 4237, 2-(6-phenoxynicotinamido)-5-(4-fluorophenyl)-1,3,4-oxadiazole], for which the MIC in data set [3] (MRSA) came out at 2.35 µg/mL (≈ 6.24 µM); in the data set with MRSA-1094 (MDR) (MRSA) it was 2.35 µg/mL (≈ 6.24 µM); in data set [4], 2.35 µg/mL (≈ 6.24 µM); in data set [5], 2.96 µg/mL (≈ 7.87 µM); in data set [6] (MSSA) it was 2.35 µg/mL (≈ 6.24 µM); in [7], 2.35 µg/mL (≈ 6.24 µM). The MIC in the data set with MRSA USA 300 (BAA-1717) was 2.1 µg/mL (≈ 5.58 µM); with MRSA N315 NRS-70 it was 4.7 µg/mL (≈ 12.5 µM); in the data set with S. pneumoniae 49619, 4.7 µg/mL (≈ 12.5 µM); in the data set with M. pneumoniae 15531, 18.8 µg/mL (≈ 50 µM); in [8] it was more than 39 µg/mL; in the data set with N. gonorrhoeae 49226, 0.75 µg/mL (≈ 1.99 µM). Moreover, the MIC in data set [9] amounted to 0.75 µg/mL (≈ 1.99 µM); in data set [10], 0.06 µg/mL (≈ 0.159 µM); in [11] it was 0.87 µg/mL (≈ 2.31 µM); in data set [12] it was 9.41 µg/mL (≈ 25 µM); with E. coli TolC(−), 1.56 µM (≈ 0.588 µg/mL). Also, the MIC90 against Franciscella tularensis stood at 1.51 µg/mL (≈ 4.01 µM). The Papp in the data set “Caco-2 permeability” stood at 12.7 ×10⁻⁶ cm/s. For the same compound, the “Serum Stability (% remain)” value in “Mouse serum stability” is reported as more than 95%. In data set [13], this compound registered a CC50 of more than 100 µM. For the same compound, the “Microsomal Stability + NADPH % degraded” value in data set [14] is 9%. The amount in solution in [15] (solubility) came to 6.25 µM (≈ 2.35 µg/mL). In [16], this compound showed a fraction unbound of 0.002.
Turning to `O=C(Nc1nnc(-c2ccc(F)cc2)o1)c1ccc(OC2CCCCC2)cc1` [compound 4292], the MIC in data set [3] (S. aureus (MRSA-1234547263, Cip-res), read-out: MIC) came to 0.67 µg/mL (≈ 1.76 µM); with MRSA-1094 (MDR) (MRSA-1094 (MDR), read-out: MIC), 0.75 µg/mL (≈ 1.97 µM); in data set [4] it was 0.95 µg/mL (≈ 2.49 µM); in [5], 1.17 µg/mL (≈ 3.07 µM); in data set [6] (S. aureus WTBF-19 (MSSA), read-out: MIC), 1.19 µg/mL (≈ 3.12 µM); in [7] (setting [17]) it was 1.23 µg/mL (≈ 3.22 µM). Moreover, the MIC is 0.3 µg/mL (≈ 0.787 µM) in the data set with MRSA USA 300 (BAA-1717); 1.36 µg/mL (≈ 3.57 µM) in the data set with MRSA N315 NRS-70; 4.77 µg/mL (≈ 12.5 µM) in the data set with S. pneumoniae 49619; 19.1 µg/mL (≈ 50.1 µM) in the data set on M. pneumoniae 15531; more than 39 µg/mL in [8]; 0.1 µg/mL (≈ 0.262 µM) in the data set on N. gonorrhoeae 49226. Also, the MIC is less than 0.02 µg/mL in [10], 0.61 µg/mL (≈ 1.6 µM) in data set [11], more than 39 µg/mL in data set [12] and 1.1 µM (≈ 0.421 µg/mL) in the data set with E. coli TolC(−). This compound also displayed a Papp in the data set “Caco-2 permeability” of 1 ×10⁻⁶ cm/s. Further, in “Mouse serum stability”, the “Serum Stability (% remain)” value came to 82%. Besides, the CC50 in data set [13] amounted to 23.7 µM. The “Microsomal Stability + NADPH % degraded” value in data set [14] worked out at 20%. In data set [15], this compound had a solubility of 6.25 µM (≈ 2.38 µg/mL). This compound also returned a fraction unbound in data set [16] of less than 0.01.
Consider `O=C(Nc1nnc(-c2ccc(F)cc2)o1)c1ccc(OC2CCCC2)cc1` [compound 4293], for which the MIC was 0.72 µg/mL (≈ 1.96 µM) in the data set on MRSA-1094 (MDR) (MRSA-1094 (MDR), read-out: MIC); 1.15 µg/mL (≈ 3.13 µM) in data set [7] (setting [17]); 0.29 µg/mL (≈ 0.789 µM) in the data set on MRSA USA 300 (BAA-1717); 4.59 µg/mL (≈ 12.5 µM) in the data set with S. pneumoniae 49619; 18.4 µg/mL (≈ 50.1 µM) with M. pneumoniae 15531; more than 36 µg/mL in [8]. The MIC is 0.09 µg/mL (≈ 0.245 µM) in the data set on N. gonorrhoeae 49226; less than 0.02 µg/mL in data set [10]; 0.59 µg/mL (≈ 1.61 µM) in data set [11]; 12.2 µg/mL (≈ 33.3 µM) in data set [12]; 1.39 µM (≈ 0.511 µg/mL) in the data set on E. coli TolC(−). For the same compound, the “Serum Stability (% remain)” value in “Mouse serum stability” is 88%. Besides, in [13], the CC50 amounted to 31.8 µM. In addition, the “Microsomal Stability + NADPH % degraded” value in [14] is given as 59%. The compound further came in with a solubility in [15] of 3.12 µM (≈ 1.15 µg/mL). This compound gave a fraction unbound in data set [16] of 0.001.
